Source: patent US20240207422A1, “NERVE TARGETING PEPTIDE CONJUGATES AND METHODS OF USE” (Alume Biosciences, Inc., priority 2022, published 2024)

system: excised human nerve tissue; experiment: Phage display selection on excised human nerve tissue (Nerve2, Nerve3), NextGen sequence counts; type: binding; conditions: unique sequence count (relative enrichment); Nerve2 only
Description: Several m13 phage libraries were constructed expressing randomized variants of a parent peptide (QVPWEEPYYVVKKS-SGGL; SEQ ID NO: 576). In particular, the first 14 amino acids of the parent peptide were randomized using degenerate oligonucleotide synthesis to obtain a diverse set of peptides with a mutation rate of about 50% per residue.
To accomplish this, synthesis was carried out by the XXK codon design approach, where X is any base and K is G or T. To bias synthesis towards the parent sequence, synthesis was carried out at each X position with a mixture of about 70%-85% of the parent nucleotide and 15-30% of the remaining 3 nucleotides. The resulting molecules were inserted into fADL-1e (Antibody Design Laboratories), which is a type 3 phage display vector having a cloning site on the N-terminal side of the full-length gene III protein. The fusion proteins are directed to the periplasm by the PelB leader peptide, which is inserted in the vector […].
Collectively, the phage display libraries used in the screens comprised about 600 million peptides, with sequencing analysis confirming a mutation rate of about 50% per residue.
Phage libraries were independently processed, as follows, with five biological samples: two independent samples of excised human nerve tissue, one sample of a human nerve extract, and two independent samples of human muscle tissue, as follows:
Excised Human Nerve Tissue: For each of the two independent samples, phage were processed through multiple cycles of selection, with representative phage being isolated and sequenced after each selection cycle. Specifically, for selection using human nerve tissue, a sample of […] tissue (2 mm by 2 mm) was washed prior to mixing and incubation with a phage library. After incubation, the mixture (containing mostly intact nerves with phage particles that had variable affinity for nerves) was centrifuged and the nerve pellet washed multiple times with PBS to remove phage with little or no affinity for nerve tissue. The pellet was homogenized and plated for titering and reamplification. Phage that were bound at each round were sequenced. NextGen sequencing of pools after 2, 3 and 4 rounds of selection were used to isolate candidate sequences that were further analyzed using bioinformatics.
NextGen sequencing of pools after 2, 3 and 4 rounds of selection were used to isolate candidate sequences from each of the five samples. These five data sets were then analyzed as described in the next section.
Peptide and vector sequences were translated starting at the first start codon in the nucleotide sequence. […] Trimmed peptides with identical sequences were combined and quantified according to their frequency (count).
Following processing, an R script was written to merge the unique peptide sequences (with counts 6 or greater) from the 5 different data sets to analyze the overlap between nerve and muscle binding activity.
For the single Nerve2, Nerve3, and Plated Nerve2 (pn2) subsets, the number of counts for each group was set at a threshold giving rise to at least 100 peptides. […] As highlighted in yellow in FIG. 1B, the representative group also included 6 unique peptides overlapping between nerve2 and nerve3, 200 unique peptides overlapping between nerve2 and plated nerve2 (at least 60 counts), 4 unique peptides overlapping between nerve3 and plated nerve2. Finally, as highlighted in green in FIG. 1B, the representative group also included […] common to the nerve2, nerve3, and plated nerve2 sets.

Substance	Count
241 (HDASGVSYYDRRES) [compound 241]	21
242 (HVGLPEPHHVMIHS) [compound 242]	20
243 (EVPSLQPYHGGKKS) [compound 243]	19
244 (QIPSQEPYHRFKES) [compound 244]	19
245 (QIPGEAPYSFGKKY) [compound 245]	18
246 (QNPWHYPYSLVSTA) [compound 246]	17
247 (DVPFRLWNFAVVDS) [compound 247]	15
248 (HFAWVVPNDAVKAS) [compound 248]	15
249 (HFSWEERYRVVHKS) [compound 249]	15
250 (RVPSDEPYSFLRQS) [compound 250]	15
251 (TQRWAEPYHVFHKS) [compound 251]	15
252 (HVLRHEPYYVVAQA) [compound 252]	14
253 (LLPSDEAHYIVKHS) [compound 253]	14
254 (NVLSEQPGYVMEYL) [compound 254]	14
255 (QLPWTNPFHVVNKY) [compound 255]	14
256 (QYSLDESPYGAKKS) [compound 256]	14
257 (YVPGAAPIGIVHKS) [compound 257]	14
258 (HFAWEEVFHVKKNF) [compound 258]	13
259 (HSPSKESHYVLENM) [compound 259]	13
260 (HVPFGGTYSVEGES) [compound 260]	13
261 (HYRCVGSCYVVAKS) [compound 261]	13

Substance	Count
262 (LFRSQAQNVLVISH) [compound 262]	13
263 (QFPGSELTVSVIQV) [compound 263]	13
264 (QFSSQEAHYELNTP) [compound 264]	13
265 (QSPWDEPYYGVLMA) [compound 265]	13
266 (QSTPEERYHRVIQA) [compound 266]	13
267 (QVPLGAPFYAVRKS) [compound 267]	13
268 (YERWEAPFYDVQKS) [compound 268]	13
269 (HVAWNEPHHVLLQI) [compound 269]	12
270 (HVLWEDPYYVVRMP) [compound 270]	12
271 (HVQLREHYFVVYSS) [compound 271]	12
272 (HVSSEAPYYVLNKS) [compound 272]	12
273 (LFPLDETYYVAKVS) [compound 273]	12
274 (QALLEEKYTALKKS) [compound 274]	12
275 (QFPWEQRNYDVKKY) [compound 275]	12
276 (QIPLDARSYLLKRP) [compound 276]	12
277 (QIQREEPFYVLKLY) [compound 277]	12
278 (QLPSKASNSVQQTF) [compound 278]	12
279 (QLPWEKPYYDVEVT) [compound 279]	12
280 (QNPGKSPYYVVHKS) [compound 280]	12
281 (QVWGEVPLSGAKRF) [compound 281]	12
282 (RVPSAAAYYGAKIS) [compound 282]	12

Substance	Count
283 (VFSSDSQYLFVPNF) [compound 283]	12
284 (DRPVEVPSDFVNNS) [compound 284]	11
285 (DVLGIERYYAVKDP) [compound 285]	11
286 (HHPGVGPFHVVKRS) [compound 286]	11
287 (HLSQYEPYDPVDKS) [compound 287]	11
288 (HVAWDGAYNLVQTT) [compound 288]	11
289 (HVPGQDPYDVQATY) [compound 289]	11
290 (HVPLEGSYLDDINS) [compound 290]	11
291 (HVTLAEPHLLLGKS) [compound 291]	11
292 (KFSLVHPEYYGKET) [compound 292]	11
293 (NLPGVEQYNLPNSS) [compound 293]	11
294 (NVPWQVPYSVLKMP) [compound 294]	11
295 (QFAGEVPYYFATDL) [compound 295]	11
296 (QHPMDPTYHVVIKA) [compound 296]	11
297 (QILSEEPYYRVDMP) [compound 297]	11
298 (QIPLAYSNYVVNKY) [compound 298]	11
299 (QITFEVPCCLVRKG) [compound 299]	11
300 (QLGLDKLNHLVKKS) [compound 300]	11
301 (QSSSVEPYYVLQNS) [compound 301]	11
302 (QVACEQPYYNVNCS) [compound 302]	11
303 (RLPEAEPYYLMTQP) [compound 303]	11

same assay, conditions: unique sequence count (relative enrichment); peptides overlapping between Nerve2 and Plated Nerve2

Substance	Count
211 (KLPLEEPFYIVTPS) [compound 211]	66
212 (QIRWEDASYVEKTS) [compound 212]	66
213 (QVPWKGQYYVVASS) [compound 213]	66
214 (HGPTDGPYYVSKKS) [compound 214]	65
215 (HILRQEPYYVLTNY) [compound 215]	65
216 (HSHGQELFYVVTNT) [compound 216]	65
217 (HVPWGEPEALVKKS) [compound 217]	65
218 (QPPREQPYHIMKNS) [compound 218]	65
219 (QTSWAGPHDRVTKA) [compound 219]	65
220 (QVPCEEPWCLVKVN) [compound 220]	65
221 (QVPWQDPVYDVNNA) [compound 221]	65
222 (YVKTVNPDSVLKIS) [compound 222]	65
223 (HVHFTDPHYVMKKS) [compound 223]	64
224 (HVPLQGPYYVKQKP) [compound 224]	64
225 (NVEWEIPYYFVKKF) [compound 225]	64
226 (QFAWVQPYYFAKKS) [compound 226]	64
227 (QHPVKERDEFWKES) [compound 227]	64
228 (QIPWGETTAGIKKL) [compound 228]	64
229 (EFSREQPNDFLNKS) [compound 229]	63
230 (HIPFAEHDGVVPIS) [compound 230]	63
231 (HVTSHEARYLAQNS) [compound 231]	63
232 (EFTWEGLSEGVNEP) [compound 232]	62
233 (HVSSEYPYYVVKHT) [compound 233]	62
234 (HVPAEPLVYENQKS) [compound 234]	61
235 (LIVSQPSYLAVQYS) [compound 235]	61
236 (QLPLAKPNSVVATS) [compound 236]	61
237 (RLAWEEPHYVVKKS) [compound 237]	61
238 (KFTTQDSYYFGTQT) [compound 238]	60
239 (NVTSREPYHLLEKS) [compound 239]	60
240 (QLPFIGPYHVAKKS) [compound 240]	60
